In US20150344457A1, “METHODS OF INHIBITING PRMT5” (EPIZYME, INC., priority 2012, published 2015):
pEC50, pIC50: −log10 of the molar value. Read-outs that look alike come from different tables or passages of the source.

Key:
[1] = target: T1, PRMT5/MEP50 (Homo sapiens, UniProt O14744); assay: PRMT5 Biochemical Assay (PRMT5/MEP50 enzyme assay on peptide substrate, 3H-SAM Flashplate); settings: read-out: Biochemical IC50
T1 construct: Expressed full-length human Flag-PRMT5/6His-MeP50 protein complex was purified; made in house; host or cells: Spodoptera frugiperda (SF9) insect cells, baculovirus (pDEST8)
T1 sequence (O14744 with tags, fused parts or gaps): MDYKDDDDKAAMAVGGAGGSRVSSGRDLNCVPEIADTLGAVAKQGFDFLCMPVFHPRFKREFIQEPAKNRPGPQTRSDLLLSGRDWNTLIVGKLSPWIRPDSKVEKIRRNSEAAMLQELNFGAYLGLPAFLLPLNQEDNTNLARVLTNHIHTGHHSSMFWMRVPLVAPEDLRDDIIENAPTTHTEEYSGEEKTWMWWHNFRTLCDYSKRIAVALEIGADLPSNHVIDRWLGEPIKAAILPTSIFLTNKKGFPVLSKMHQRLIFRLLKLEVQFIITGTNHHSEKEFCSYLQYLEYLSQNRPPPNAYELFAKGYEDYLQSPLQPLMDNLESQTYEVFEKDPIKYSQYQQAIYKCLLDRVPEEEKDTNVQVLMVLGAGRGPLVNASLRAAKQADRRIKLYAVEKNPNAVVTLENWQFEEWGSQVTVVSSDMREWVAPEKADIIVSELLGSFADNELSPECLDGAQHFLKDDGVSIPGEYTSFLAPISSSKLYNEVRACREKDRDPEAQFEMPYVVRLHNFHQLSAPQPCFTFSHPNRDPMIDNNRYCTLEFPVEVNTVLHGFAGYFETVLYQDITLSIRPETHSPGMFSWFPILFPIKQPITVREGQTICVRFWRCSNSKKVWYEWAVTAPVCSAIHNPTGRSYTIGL
T1 sequence (Q9BQA1 with tags, fused parts or gaps partner limits assumed): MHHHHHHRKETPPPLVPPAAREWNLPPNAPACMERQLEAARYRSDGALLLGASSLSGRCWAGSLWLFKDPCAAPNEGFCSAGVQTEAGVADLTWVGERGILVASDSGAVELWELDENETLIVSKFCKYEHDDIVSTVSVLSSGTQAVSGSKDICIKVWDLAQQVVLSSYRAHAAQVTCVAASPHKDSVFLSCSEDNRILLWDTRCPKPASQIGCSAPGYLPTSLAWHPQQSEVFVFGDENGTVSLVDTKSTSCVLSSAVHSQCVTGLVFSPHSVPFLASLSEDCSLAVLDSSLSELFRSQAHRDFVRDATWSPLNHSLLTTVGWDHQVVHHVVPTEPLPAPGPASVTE

[2] = system: Z-138 cells; assay: Z-138 Methylation Assay (In Cell Western for symmetric di-methyl arginine and DNA content); assay type: cell-based; settings: Homo sapiens, Table A-2, 96 hours, symmetric di-methyl arginine, read-out: ICW EC50
Excerpt: Z-138 suspension cells were purchased from ATCC (American Type Culture Collection, Manassas, Va.). RPMI/Glutamax medium, penicillin-streptomycin, heat inactivated fetal bovine serum, and D-PBS were purchased from Life Technologies, Grand Island, N.Y., USA. Odyssey blocking buffer, 800CW goat anti-rabbit IgG (H+L) antibody, and Licor Odyssey infrared scanner were purchased from Licor Biosciences, Lincoln, Nebr., USA. Symmetric di-methyl arginine antibody was purchased from EMD Millipore, Billerica, Mass., USA. 16% Paraformaldehyde was purchased from Electron Microscopy Sciences, Hatfield, Pa., USA.
Z-138 suspension cells were maintained in growth medium (RPMI 1640 supplemented with 10% v/v heat inactivated fetal bovine serum and 100 units/mL penicillin-streptomycin) and cultured at 37° C. under 5% CO2.
Cell Treatment, in Cell Western (ICW) for Detection of Symmetric Di-Methyl Arginine and DNA Content.
Z-138 cells were seeded in assay medium at a concentration of 50,000 cells per mL to a 384-well cell culture plate with 50 μL per well. Compound (100 nL) from 384 well source plates was added directly to 384 well cell plate. Plates were incubated at 37° C., 5% CO2 for 96 hours. After four days of incubation, 40 μL of cells from incubated plates were added to poly-D-lysine coated 384 well culture plates (BD Biosciences 356697). Plates were incubated at room temperature for 30 minutes then incubated at 37° C., 5% CO2 for 5 hours. After the incubation, 40 μL per well of 8% paraformaldehyde in PBS (16% paraformaldahyde was diluted to 8% in PBS) was added to each plate and incubated for 30 minutes. Plates were transferred to a Biotek 405 plate washer and washed 5 times with 100 μL per well of wash buffer (1×PBS with 0.1% Triton X-100 (v/v)). Next 30 μL per well of Odyssey blocking buffer were added to each plate and incubated 1 hour at room temperature. Blocking buffer was removed and 20 μL per well of primary antibody was added (symmetric di-methyl arginine diluted 1:100 in Odyssey buffer with 0.1% Tween 20 (v/v)) and plates were incubated overnight (16 hours) at 4° C. Plates were washed 5 times with 100 μL per well of wash buffer. Next 20 μL per well of secondary antibody was added (1:200 800CW goat anti-rabbit IgG (H+L) antibody, 1:1000 DRAQS (Biostatus limited) in Odyssey buffer with 0.1% Tween 20 (v/v)) and incubated for 1 hour at room temperature. The plates were washed 5 times with 100 μL per well wash buffer then 1 time with 100 μL per well of water. Plates were allowed to dry at room temperature then imaged on the Licor Odyssey machine which measures integrated intensity at 700 nm and 800 nm wavelengths. Both 700 and 800 channels were scanned.
First, the ratio for each well was determined by:
Each plate included fourteen control wells of DMSO only treatment (minimum inhibition) as well as fourteen control wells for maximum inhibition treated with 3 μM of a reference compound (Background wells). The average of the ratio values for each control type was calculated and used to determine the percent inhibition for each test well in the plate. Reference compound was serially diluted three-fold in DMSO for a total of nine test concentrations, beginning at 3 μM. Percent inhibition was determined and IC50 curves were generated using triplicate wells per concentration of compound.

[3] = system: Z-138 cells; assay: Z-138 Proliferation Assay (Cell Titer Glo, 5 days); assay type: cell-based; settings: Homo sapiens, Table D-2
Excerpt: Z-138 Proliferation Assay
Z-138 suspension cells were purchased from ATCC (American Type Culture Collection, Manassas, Va.). RPMI/Glutamax medium, penicillin-streptomycin, heat inactivated fetal bovine serum were purchased from Life Technologies, Grand Island, N.Y., USA. V-bottom polypropylene 384-well plates were purchased from Greiner Bio-One, Monroe, N.C., USA. Cell culture 384-well white opaque plates were purchased from Perkin Elmer, Waltham, Mass., USA. Cell-Titer Gb® was purchased from Promega Corporation, Madison, Wis., USA. SpectraMax M5 plate reader was purchased from Molecular Devices LLC, Sunnyvale, Calif., USA.
Z-138 suspension cells were maintained in growth medium (RPMI 1640 supplemented with 10% v/v heat inactivated fetal bovine serum and cultured at 37° C. under 5% CO2. Under assay conditions, cells were incubated in assay medium (RPMI 1640 supplemented with 10% v/v heat inactivated fetal bovine serum and 100 units/mL penicillin-streptomycin) at 37° C. under 5% CO2.
For the assessment of the effect of compounds on the proliferation of the Z-138 cell line, exponentially growing cells were plated in 384-well white opaque plates at a density of 10,000 cells/ml in a final volume of 50 μl of assay medium. A compound source plate was prepared by performing triplicate nine-point 3-fold serial dilutions in DMSO, beginning at 10 mM (final top concentration of compound in the assay was 20 μM and the DMSO was 0.2%). A 100 nL aliquot from the compound stock plate was added to its respective well in the cell plate. […] After addition of compounds, assay plates were incubated for 5 days at 37° C., 5% CO2, relative humidity >90%.
Cell viability was measured by quantitation of ATP present in the cell cultures, adding 35 μl of Cell Titer Glo® reagent to the cell plates. Luminescence was read in the SpectraMax M5 microplate reader. The concentration of compound inhibiting cell viability by 50% was determined using a 4-parametric fit of the normalized dose response curves.

| SMILES | pIC50 ([1]; Table A-2, PRMT5/MEP50 4 nM, 3H-SAM 75 nM, peptide 40 nM) | pEC50 [2] | pIC50 ([1]; Table D-2) | pEC50 [3] |
| --- | --- | --- | --- | --- |
| O=C(COc1ccccc1)NCC(O)CN1CCc2ccccc2C1 (stereo not drawn) [Compound A1] | 6.00 to 7.00 | 6.00 to 7.00 | – | – |
| OC(COc1cccc(CNC2CCCC2)c1)CN1CCc2ccccc2C1 (stereo not drawn) [Compound D1] | – | – | 6.00 to 7.00 | 4.40 to 5.00 |
| OC(COc1ccc(-n2cncn2)cc1)CN1CCc2ccccc2C1 (stereo not drawn) [Compound D9] | – | – | 5.00 to 6.00 | < 4.70 |
| OC(COCc1ccc(OCc2ccccc2)cc1)CN1CCc2ccccc2C1 (stereo not drawn) [Compound D12] | – | – | 5.00 to 6.00 | < 4.70 |
| O=S1(=O)CCN(c2ccc(OCC(O)CN3CCc4ccccc4C3)cc2)CC1 (stereo not drawn) [Compound D18] | – | – | 5.00 to 6.00 | < 4.70 |
| OC(COC1CCN(Cc2ccccc2)CC1)CN1CCc2ccccc2C1 (stereo not drawn) [Compound D21] | – | – | 5.00 to 6.00 | < 4.40 |
| O[C@@H](COc1cccc(CNC2CCCC2)c1)CN1CCc2ccccc2C1 [Compound D23] | – | – | – | 4.40 to 5.00 |
| CN(Cc1ccc(OCC(O)CN2CCc3ccccc3C2)cc1)C1CCCC1 (stereo not drawn) [Compound D24] | – | – | 5.00 to 6.00 | < 4.40 |
| OC(COc1ccc(C2CCNCC2)cc1)CN1CCc2ccccc2C1 (stereo not drawn) [Compound D25] | – | – | 5.00 to 6.00 | 4.40 to 5.00 |
| CC(C)n1nccc1-c1ccc(OCC(O)CN2CCc3ccccc3C2)cc1 (stereo not drawn) [Compound D26] | – | – | 4.40 to 5.00 | < 4.40 |
| CC(C)n1ccc(-c2ccc(OCC(O)CN3CCc4ccccc4C3)cc2)n1 (stereo not drawn) [Compound D27] | – | – | 5.00 to 6.00 | < 4.40 |
| Cc1nn(-c2ccccc2)c(C)c1COCC(O)CN1CCc2ccccc2C1 (stereo not drawn) [Compound D28] | – | – | 5.00 to 6.00 | < 4.40 |
| COc1cccc2c1CN(CC(O)COc1cccc(CNC3CCCC3)c1)CC2 (stereo not drawn) [Compound D29] | – | – | 4.40 to 5.00 | 4.40 to 5.00 |
| COc1cc2c(cc1OC)CN(CC(O)COc1cccc(CNC3CCCC3)c1)CC2 (stereo not drawn) [Compound D30] | – | – | < 4.40 | 4.40 to 5.00 |
| CC(C(O)COc1cccc(CNC2CCCC2)c1)N1CCc2ccccc2C1 (stereo not drawn) [Compound D33] | – | – | 5.00 to 6.00 | < 4.40 |
| O=C(c1ccc(Cn2ccc(-c3ccc(OCC(O)CN4CCc5ccccc5C4)cc3)n2)cc1)N1CCCC1 (stereo not drawn) [Compound D34] | – | – | 5.00 to 6.00 | 4.40 to 5.00 |
| CCC1c2ccccc2CCN1CC(O)COc1cccc(-c2ccc3ncn(C)c3c2)c1 (stereo not drawn) [Compound D179] | – | – | 6.00 to 7.00 | < 4.70 |
| OC(COCc1c(Cl)cccc1Cl)CN1CCc2ccccc2C1 (stereo not drawn) [Compound D280] | – | – | 5.00 to 6.00 | 4.40 to 5.00 |
| OC(COc1ccc2c(c1)OCO2)CN1CCc2ccccc2C1 (stereo not drawn) [Compound D285] | – | – | 5.00 to 6.00 | < 4.70 |
| CCCCNCc1cccc(COCC(O)CN2CCc3ccccc3C2)c1 (stereo not drawn) [Compound D286] | – | – | 6.00 to 7.00 | < 4.70 |
| COc1cccc(COCC(O)CN2CCc3ccccc3C2)c1 (stereo not drawn) [Compound D288] | – | – | 5.00 to 6.00 | < 4.40 |

| SMILES | pIC50 ([1]; Table A-2, PRMT5/MEP50 4 nM, 3H-SAM 75 nM, peptide 40 nM) | pEC50 [2] | pIC50 ([1]; Table D-2) | pEC50 [3] |
| --- | --- | --- | --- | --- |
| CN1CCCCC1COCC(O)CN1CCc2ccccc2C1 (stereo not drawn) [Compound D289] | – | – | < 4.40 | < 4.40 |
| CC(C)(C)OC(=O)N1CC(OCC(O)CN2CCc3ccccc3C2)C1 (stereo not drawn) [Compound D290] | – | – | 5.00 to 6.00 | < 4.40 |
| CC(C)(C)OC(=O)N1CCCC(OCC(O)CN2CCc3ccccc3C2)C1 (stereo not drawn) [Compound D291] | – | – | 5.00 to 6.00 | < 4.40 |
| CC(C)(C)OC(=O)N1CCC(OCC(O)CN2CCc3ccccc3C2)CC1 (stereo not drawn) [Compound D292] | – | – | 5.00 to 6.00 | < 4.40 |
| CN1CCC(OCC(O)CN2CCc3ccccc3C2)CC1 (stereo not drawn) [Compound D293] | – | – | < 4.40 | < 4.40 |
| OC(COCC1CCCCC1)CN1CCc2ccccc2C1 (stereo not drawn) [Compound D294] | – | – | 5.00 to 6.00 | < 4.40 |
| CCn1ccnc1COCC(O)CN1CCc2ccccc2C1 (stereo not drawn) [Compound D295] | – | – | < 4.40 | < 4.40 |
| OC(COC1CCCNC1)CN1CCc2ccccc2C1 (stereo not drawn) [Compound D297] | – | – | < 4.40 | < 4.40 |
| OC(COC1CCNCC1)CN1CCc2ccccc2C1 (stereo not drawn) [Compound D298] | – | – | < 4.40 | < 4.40 |
| CC(OCC(O)CN1CCc2ccccc2C1)c1cccnc1 (stereo not drawn) [Compound D299] | – | – | 4.40 to 5.00 | < 4.40 |
| OC(COCC1COc2ccccc2O1)CN1CCc2ccccc2C1 (stereo not drawn) [Compound D300] | – | – | 6.00 to 7.00 | < 4.40 |
| OC(COC1Cc2ccccc2C1)CN1CCc2ccccc2C1 (stereo not drawn) [Compound D301] | – | – | 5.00 to 6.00 | < 4.40 |
| OC(COCC1CC1)CN1CCc2ccccc2C1 (stereo not drawn) [Compound D303] | – | – | 5.00 to 6.00 | < 4.40 |
| OC(COCC1CCCCO1)CN1CCc2ccccc2C1 (stereo not drawn) [Compound D304] | – | – | < 4.40 | < 4.40 |
| OC(COCC1CCCO1)CN1CCc2ccccc2C1 (stereo not drawn) [Compound D305] | – | – | 4.40 to 5.00 | < 4.40 |
| OC(COC1CCNC1)CN1CCc2ccccc2C1 (stereo not drawn) [Compound D306] | – | – | < 4.40 | < 4.40 |
| CN1CCC(OCC(O)CN2CCc3ccccc3C2)C1 (stereo not drawn) [Compound D307] | – | – | < 4.40 | < 4.40 |
| OC(COCc1ccccc1)CN1CCc2ccccc2C1 (stereo not drawn) [Compound D308] | – | – | 4.40 to 5.00 | < 4.40 |
| OC(COC1CCCCCC1)CN1CCc2ccccc2C1 (stereo not drawn) [Compound D309] | – | – | 5.00 to 6.00 | < 4.40 |
| OC(COC1CCOCC1)CN1CCc2ccccc2C1 (stereo not drawn) [Compound D310] | – | – | 4.40 to 5.00 | < 4.40 |
